# Read-outs that look alike come from different tables or passages of the source.
# What was measured:
# [1] = target: T1, FEN-1 (flap endonuclease-1) purified from the nuclear fraction of mouse pre-B cell line 1-8 (Mus musculus, UniProt P39749); test: biochemical; details: 0.5 h, read-out: % Activity (exonuclease activity, FEN-1 activity versus divalent metal ion)
# Description: All purification steps were carried out at 0°-4° C. Six liters of the murine pre-B cell line, 1-8 (Alt et al., 1984), were grown to 2×10^6 cells/ml in RPMI 1640, 10% FBS, 50 μM β-mercaptoethanol (βME), 100 μg/ml penicillin-streptomycin in spinner flasks. Eighteen liters of RPMI 1640 and 100 μg/ml penicillin-streptomycin were then added, and the cells were allowed to grow for an additional 24 h. The cells were harvested at a cell density of 1-1.5×10^6 cells/ml and spun at 1000 g in a Beckman JA-10 rotor for 5 min. The cell pellet was then washed with 500 ml of ice-cold PBS (5 mM NaPi pH 7.4, 137 mM NaCl, 3 mM KCl) supplemented with 1 g/l MgCl2 and pelleted as above. Nuclei were isolated by allowing the cell pellet to swell in 100 ml Buffer A (10 mM HEPES-KOH pH 7.8, 1.5 mM MgCl2, 10 mM KCl, 0.5 mM DTT) for 10 min on ice. The swollen cells were spun for 5 min at 2500 g in a Beckman J6B centrifuge, resuspended in 40 ml Buffer A and homogenized with 20 strokes of the B-pestle in a Dounce homogenizer. The nuclei were collected by centrifugation at 2500 g in a Beckman J6B for 5 min and lysed by adding 40 ml of Buffer B (20 mM EPES-KOH pH 7.8, 0.42M NaCl, 25% glycerol, 1.5 mM MgCl2, 0.2 mM EDTA, 0.5 mM DTT, 0.5 mM PMSF). Nuclear lysis was completed with 20 strokes of the B-pestle in a Dounce homogenizer. […]
# [2] = target: T1, FEN-1 (flap endonuclease-1) purified from the nuclear fraction of mouse pre-B cell line 1-8; details: replacement of MgCl2 with 5 mM EDTA
# Excerpt: (§1) FEN-1 was purified from the nuclear fraction of a mouse pre-B cell line. The chromatographic behavior of FEN-1 was monitored using Flap Substrate 1 in the standard FEN-1 endonuclease assay.
# [3] = target: T1, FEN-1 (flap endonuclease-1) purified from the nuclear fraction of mouse pre-B cell line 1-8; test: biochemical; details: read-out: % Activity (endonuclease activity, FEN-1 activity versus divalent metal ion)
# Excerpt: as §1
# T1 sequence (P39749 whole entry): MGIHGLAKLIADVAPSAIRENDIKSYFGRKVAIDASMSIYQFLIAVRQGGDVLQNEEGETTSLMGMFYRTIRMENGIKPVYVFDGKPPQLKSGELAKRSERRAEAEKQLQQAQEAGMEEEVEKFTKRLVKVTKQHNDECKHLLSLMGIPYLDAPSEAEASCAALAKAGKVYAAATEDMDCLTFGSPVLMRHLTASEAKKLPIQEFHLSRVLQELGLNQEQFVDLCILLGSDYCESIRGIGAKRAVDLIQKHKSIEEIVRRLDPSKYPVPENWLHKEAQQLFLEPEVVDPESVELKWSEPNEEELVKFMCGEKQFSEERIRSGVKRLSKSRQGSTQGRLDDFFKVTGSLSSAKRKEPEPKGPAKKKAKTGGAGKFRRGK
compound,measurement,setting,value
O=C(O)CN(CCN(CC(=O)O)CC(=O)O)CC(=O)O [EDTA],activity at 5000 µM,[1],< 0.5%
same,Inhibition of the flap cleavage reaction,[2],completely inhibited
same,activity at 5000 µM,[3],< 1%

# From US5874283A, “Mammalian flap-specific endonuclease” (Harrington; John Joseph, priority 1995, dated 1999)
